Test results taken from US10034861B2 (priority 2016, dated 2018).
Where two headings read alike, the source gives them in different places.

Tests used:
Assay type in all cases: biochemical
[1] = molecular target: PDE1A (Homo sapiens (Human), UniProt P54750); experiment: biochemical
From the text: (§1) Table 1 lists the IC50 value for inhibition of PDE1 by the compounds of the invention. […] PDE1 assays are described in the Experimental Section.

[2] = molecular target: PDE1C (Homo sapiens (Human), UniProt Q14123); experiment: biochemical
Sequence of PDE1C (Q14123 whole entry): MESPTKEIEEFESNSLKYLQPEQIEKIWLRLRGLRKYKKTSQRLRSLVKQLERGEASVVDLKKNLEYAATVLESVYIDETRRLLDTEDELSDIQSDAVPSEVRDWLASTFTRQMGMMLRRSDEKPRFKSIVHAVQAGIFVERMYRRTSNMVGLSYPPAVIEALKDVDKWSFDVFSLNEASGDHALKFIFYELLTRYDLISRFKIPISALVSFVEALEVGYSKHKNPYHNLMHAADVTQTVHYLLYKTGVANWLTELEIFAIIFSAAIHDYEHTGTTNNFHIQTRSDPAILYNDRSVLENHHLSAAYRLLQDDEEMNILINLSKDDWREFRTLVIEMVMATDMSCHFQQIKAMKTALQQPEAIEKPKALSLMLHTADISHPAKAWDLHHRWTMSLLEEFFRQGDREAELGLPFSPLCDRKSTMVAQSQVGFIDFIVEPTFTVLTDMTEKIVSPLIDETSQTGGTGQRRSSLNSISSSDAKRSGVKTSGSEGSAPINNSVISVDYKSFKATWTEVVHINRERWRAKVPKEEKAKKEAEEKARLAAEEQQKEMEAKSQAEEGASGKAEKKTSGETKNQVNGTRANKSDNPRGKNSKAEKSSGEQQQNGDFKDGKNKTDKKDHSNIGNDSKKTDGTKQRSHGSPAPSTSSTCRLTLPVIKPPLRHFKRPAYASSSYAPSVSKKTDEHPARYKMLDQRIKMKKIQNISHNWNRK
From the text: as §1

[3] = molecular target: PDE1B (Homo sapiens (Human), UniProt Q01064); experiment: PDE1 inhibition assay (PDE1B); details: 15 nM tritium labelled cAMP, 1 hr at room temperature, SPA beads
Sequence of PDE1B (Q01064 whole entry): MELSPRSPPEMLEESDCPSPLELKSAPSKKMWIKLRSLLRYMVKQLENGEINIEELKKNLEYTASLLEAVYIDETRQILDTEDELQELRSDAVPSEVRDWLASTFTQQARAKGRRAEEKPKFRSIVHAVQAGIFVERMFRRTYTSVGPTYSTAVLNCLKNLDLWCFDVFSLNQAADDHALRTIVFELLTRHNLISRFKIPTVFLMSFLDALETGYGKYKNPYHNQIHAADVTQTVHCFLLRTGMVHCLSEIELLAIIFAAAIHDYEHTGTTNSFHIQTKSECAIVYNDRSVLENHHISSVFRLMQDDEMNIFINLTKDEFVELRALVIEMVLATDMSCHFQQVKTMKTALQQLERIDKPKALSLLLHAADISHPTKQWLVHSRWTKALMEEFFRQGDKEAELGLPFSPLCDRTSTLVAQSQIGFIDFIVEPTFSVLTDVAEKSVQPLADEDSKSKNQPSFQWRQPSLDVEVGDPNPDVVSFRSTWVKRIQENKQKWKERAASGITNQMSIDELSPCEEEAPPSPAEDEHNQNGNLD
From the text: as §1

[4] = 15 nM tritium labelled cAMP, 1 hr at room temperature, SPA beads

Sequence of PDE1A (P54750 whole entry): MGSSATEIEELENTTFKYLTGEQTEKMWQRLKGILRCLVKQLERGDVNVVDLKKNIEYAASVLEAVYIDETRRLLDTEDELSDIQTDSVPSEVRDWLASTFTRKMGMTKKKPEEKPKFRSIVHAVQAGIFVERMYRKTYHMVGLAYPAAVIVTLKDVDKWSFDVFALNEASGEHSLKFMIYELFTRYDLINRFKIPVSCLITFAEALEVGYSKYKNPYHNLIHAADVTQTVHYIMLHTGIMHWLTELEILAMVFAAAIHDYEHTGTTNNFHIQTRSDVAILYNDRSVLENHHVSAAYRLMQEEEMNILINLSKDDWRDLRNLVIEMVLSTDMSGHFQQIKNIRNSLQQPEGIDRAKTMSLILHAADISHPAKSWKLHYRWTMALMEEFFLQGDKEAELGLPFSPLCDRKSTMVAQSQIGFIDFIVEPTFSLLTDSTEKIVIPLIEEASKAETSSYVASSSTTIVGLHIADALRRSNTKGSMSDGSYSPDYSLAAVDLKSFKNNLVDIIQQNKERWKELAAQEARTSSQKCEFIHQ

`CCOc1ncccc1-c1cc(NCc2ccccc2C(F)(F)F)c2c(n1)c(C)nn2C(C)C` [Example 90, 5-(2-ethoxy-3-pyridyl)-1-isopropyl-3-methyl-N-[[2-(trifluoromethyl)phenyl]methyl]pyrazolo[4,3-b]pyridin-7-amine] gave an IC50 [1, 4] of 270 nM, an IC50 [2, 4] of 640 nM and an IC50 ([3]; read-out: PDE1B, IC50) of 12 nM.
Compound `CCOc1ncccc1-c1cc(NCc2ccn(C)c(=O)c2)c2c(n1)c(C)nn2C(C)C` [Example 78, 4-[[[5-(2-ethoxy-3-pyridyl)-1-isopropyl-3-methyl-pyrazolo[4,3-b]pyridin-7-yl]amino]methyl]-1-methyl-pyridin-2-one] has an IC50 [1, 4] of 27 nM, an IC50 [2, 4] of 44 nM and an IC50 ([3]; read-out: PDE1B, IC50) of 3.2 nM.
`CCOc1ncccc1-c1cc(NCc2cccnc2OC)c2c(n1)c(C)nn2C(C)C` [Example 86, 5-(2-ethoxy-3-pyridyl)-1-isopropyl-N-[(2-methoxy-3-pyridyl)methyl]-3-methyl-pyrazolo[4,3-b]pyridin-7-amine] gave an IC50 [1, 4] of 20 nM, an IC50 [2, 4] of 68 nM and an IC50 ([3]; read-out: PDE1B, IC50) of 0.36 nM.
In the case of `Cc1nn(C(C)C)c2c(NCc3cnn(C)c3)cc(N3CCCC3=O)nc12` [Example 154, 1-[1-isopropyl-3-methyl-7-[(1-methylpyrazol-4-yl)methylamino]pyrazolo[4,3-b]pyridin-5-yl]pyrrolidin-2-one], the IC50 [1, 4] is reported as 26 nM, the IC50 [2, 4] is reported as 49 nM and the IC50 ([3]; read-out: PDE1B, IC50) is reported as 3.6 nM.
For `CCOc1ncccc1-c1cc(NCc2cnc(OC)cn2)c2c(n1)c(C)nn2C(C)C` [Example 114, 5-(2-ethoxy-3-pyridyl)-1-isopropyl-N-[(5-methoxypyrazin-2-yl)methyl]-3-methyl-pyrazolo[4,3-b]pyridin-7-amine], the IC50 [1, 4] was 24 nM, the IC50 [2, 4] was 46 nM and the IC50 ([3]; read-out: PDE1B, IC50) was 3 nM.
In the case of `CCOc1ncccc1-c1cc(NCc2ncc(C)s2)c2c(n1)c(C)nn2C(C)C` [Example 2, 5-(2-ethoxy-3-pyridyl)-1-isopropyl-3-methyl-N-[(5-methylthiazol-2-yl)methyl]pyrazolo[4,3-b]pyridin-7-amine], the IC50 [1, 4] is reported as 0.46 nM, the IC50 [2, 4] is reported as 4.9 nM and the IC50 ([3]; read-out: PDE1B, IC50) is reported as 0.071 nM.
`CCOc1ncccc1-c1cc(NCc2nnc(C)o2)c2c(n1)c(C)nn2C(C)C` [Example 1, 5-(2-ethoxypyridin-3-yl)-1-isopropyl-3-methyl-N-((5-methyl-1,3,4-oxadiazol-2-yl)methyl)-1H-pyrazolo[4,3-b]pyridin-7-amine] was tested, and the IC50 [1, 4] was 18 nM, the IC50 [2, 4] was 40 nM and the IC50 ([3]; read-out: PDE1B, IC50) was 1.6 nM.
`CCOc1ncccc1-c1cc(NCc2nc(C)no2)c2c(n1)c(C)nn2C(C)C` [Example 30, 5-(2-ethoxy-3-pyridyl)-1-isopropyl-3-methyl-N-[(3-methyl-1,2,4-oxadiazol-5-yl)methyl]pyrazolo[4,3-b]pyridin-7-amine] gave an IC50 [1, 4] of 15 nM, an IC50 [2, 4] of 31 nM and an IC50 ([3]; read-out: PDE1B, IC50) of 1.3 nM.
Compound `CCOc1ncccc1-c1cc(NCc2cnn(CC)c2)c2c(n1)c(C)nn2C(C)C` [Example 109, 5-(2-ethoxy-3-pyridyl)-N-[(1-ethylpyrazol-4-yl)methyl]-1-isopropyl-3-methyl-pyrazolo[4,3-b]pyridin-7-amine] has an IC50 [1, 4] of 4.9 nM, an IC50 [2, 4] of 11 nM and an IC50 ([3]; read-out: PDE1B, IC50) of 0.66 nM.
In the case of `COc1ncccc1-c1cc(NCc2cnc(C)s2)c2c(n1)c(C)nn2C(C)C` [Example 173, 1-isopropyl-5-(2-methoxy-3-pyridyl)-3-methyl-N-[(2-methylthiazol-5-yl)methyl]pyrazolo[4,3-b]pyridin-7-amine], the IC50 [1, 4] is reported as 49 nM, the IC50 [2, 4] is reported as 26 nM and the IC50 ([3]; read-out: PDE1B, IC50) is reported as 6.3 nM.
`Cc1nn(C(C)C)c2c(NCc3cnn(C)c3)cc(N3C(=O)OCC3C)nc12` (stereo not drawn) [Example 155, 3-[1-isopropyl-3-methyl-7-[(1-methylpyrazol-4-yl)methylamino]pyrazolo[4,3-b]pyridin-5-yl]-4-methyl-oxazolidin-2-one] showed an IC50 [1, 4] of 8.2 nM, an IC50 [2, 4] of 3.9 nM and an IC50 ([3]; read-out: PDE1B, IC50) of 4.9 nM.
`CCOc1ncccc1-c1cc(NCc2ncc(F)cn2)c2c(n1)c(C)nn2C(C)C` [Example 83, 5-(2-ethoxy-3-pyridyl)-N-[(5-fluoropyrimidin-2-yl)methyl]-1-isopropyl-3-methyl-pyrazolo[4,3-b]pyridin-7-amine] gave an IC50 [1, 4] of 17 nM, an IC50 [2, 4] of 38 nM and an IC50 ([3]; read-out: PDE1B, IC50) of 1.2 nM.
Work on `CCOc1ncccc1-c1cc(NCc2ncn(C)n2)c2c(cnn2C(C)C)n1` [Example 56, 5-(2-ethoxy-3-pyridyl)-1-isopropyl-N-[(1-methyl-1,2,4-triazol-3-yl)methyl]pyrazolo[4,3-b]pyridin-7-amine] yielded an IC50 [1, 4] of 16 nM, an IC50 [2, 4] of 45 nM and an IC50 ([3]; read-out: PDE1B, IC50) of 1 nM.
Compound `CCOc1ncccc1-c1cc(NCc2nccc(OC)n2)c2c(n1)c(C)nn2C(C)C` [Example 189, 5-(2-ethoxy-3-pyridyl)-1-isopropyl-N-[(4-methoxypyrimidin-2-yl)methyl]-3-methyl-pyrazolo[4,3-b]pyridin-7-amine] has an IC50 [1, 4] of 3.9 nM, an IC50 [2, 4] of 19 nM and an IC50 ([3]; read-out: PDE1B, IC50) of 0.49 nM.
`CCOc1ncccc1-c1cc(NCc2ncc(OC)cn2)c2c(n1)c(C)nn2C(C)C` [Example 176, 5-(2-ethoxy-3-pyridyl)-1-isopropyl-N-[(5-methoxypyrimidin-2-yl)methyl]-3-methyl-pyrazolo[4,3-b]pyridin-7-amine] was tested, and the IC50 [1, 4] was 81 nM, the IC50 [2, 4] was 93 nM and the IC50 ([3]; read-out: PDE1B, IC50) was 12 nM.
For `CCOc1ncccc1-c1cc(NCc2ccn(C)n2)c2c(n1)c(C)nn2C(C)C` [Example 60, 5-(2-ethoxy-3-pyridyl)-1-isopropyl-3-methyl-N-[(1-methylpyrazol-3-yl)methyl]pyrazolo[4,3-b]pyridin-7-amine], the IC50 [1, 4] was 6.5 nM, the IC50 [2, 4] was 12 nM and the IC50 ([3]; read-out: PDE1B, IC50) was 0.59 nM.
In the case of `Cc1nn(C(C)C)c2c(NCc3cnn(C)c3)cc(-c3cccnc3OC(C)C)nc12` [Example 97, 5-(2-isopropoxy-3-pyridyl)-1-isopropyl-3-methyl-N-[(1-methylpyrazol-4-yl)methyl]pyrazolo[4,3-b]pyridin-7-amine], the IC50 [1, 4] is reported as 1.4 nM, the IC50 [2, 4] is reported as 9.1 nM and the IC50 ([3]; read-out: PDE1B, IC50) is reported as 0.6 nM.
Compound `CCOc1ncccc1-c1cc(NCc2ccc(C)cc2)c2c(cnn2C(C)C)n1` [Example 24, 5-(2-ethoxy-3-pyridyl)-1-isopropyl-N-(p-tolylmethyl)pyrazolo[4,3-b]pyridin-7-amine] has an IC50 [1, 4] of 380 nM, an IC50 [2, 4] of 1200 nM and an IC50 ([3]; read-out: PDE1B, IC50) of 160 nM.
Compound `CCOc1ncccc1-c1cc(NCc2n[nH]c(C)n2)c2c(n1)c(C)nn2C(C)C` [Example 55, 5-(2-ethoxy-3-pyridyl)-1-isopropyl-3-methyl-N-[(5-methyl-1H-1,2,4-triazol-3-yl)methyl]pyrazolo[4,3-b]pyridin-7-amine] has an IC50 [1, 4] of 3.4 nM, an IC50 [2, 4] of 5.5 nM and an IC50 ([3]; read-out: PDE1B, IC50) of 0.51 nM.
Compound `[2H]C([2H])([2H])C([2H])([2H])Oc1ncccc1-c1cc(NCc2cccnc2OC)c2c(n1)c(C)nn2C(C)C` [Example 181, 5-(2-(ethoxy-d5)pyridin-3-yl)-1-isopropyl-N-((2-methoxypyridin-3-yl)methyl)-3-methyl-1H-pyrazolo[4,3-b]pyridin-7-amine] has an IC50 [1] of 31 nM, an IC50 [2] of 84 nM and an IC50 ([3]; PDE1B, IC50 (nM)) of 1.6 nM.
For `CCOc1ncccc1-c1cc(NCc2cnc(C)s2)c2c(n1)c(C)nn2C(C)C` [Example 32, 5-(2-ethoxy-3-pyridyl)-1-isopropyl-3-methyl-N-[(2-methylthiazol-5-yl)methyl]pyrazolo[4,3-b]pyridin-7-amine], the IC50 [1, 4] was 4.6 nM, the IC50 [2, 4] was 6.2 nM and the IC50 ([3]; read-out: PDE1B, IC50) was 0.14 nM.
`CCOc1ncccc1-c1cc(NCc2cccc(C)c2)c2c(cnn2C(C)C)n1` [Example 23, 5-(2-ethoxy-3-pyridyl)-1-isopropyl-N-(m-tolylmethyl)pyrazolo[4,3-b]pyridin-7-amine] was tested, and the IC50 [1, 4] was 240 nM, the IC50 [2, 4] was 750 nM and the IC50 ([3]; read-out: PDE1B, IC50) was 38 nM.
In the case of `CCOc1ncccc1-c1cc(NCc2ccn(C)n2)c2c(cnn2C(C)C)n1` [Example 19, 5-(2-ethoxypyridin-3-yl)-1-isopropyl-N-((1-methyl-1H-pyrazol-3-yl)methyl)-1H-pyrazolo[4,3-b]pyridin-7-amine], the IC50 [1, 4] is reported as 66 nM, the IC50 [2, 4] is reported as 150 nM and the IC50 ([3]; read-out: PDE1B, IC50) is reported as 4.6 nM.
In the case of `CCOc1ncccc1-c1cc(CNc2cncc(OC)c2)c2c(n1)c(C)nn2C(C)C` [Example 157, N-[[5-(2-ethoxy-3-pyridyl)-1-isopropyl-3-methyl-pyrazolo[4,3-b]pyridin-7-yl]methyl]-5-methoxy-pyridin-3-amine], the IC50 [1, 4] is reported as 34 nM, the IC50 [2, 4] is reported as 77 nM and the IC50 ([3]; read-out: PDE1B, IC50) is reported as 14 nM.
`CCOc1ncccc1-c1cc(NCc2cccnc2OC)c2c(n1)c(C)nn2C1COC1` [Example 197, 5-(2-ethoxy-3-pyridyl)-N-[(2-methoxy-3-pyridyl)methyl]-3-methyl-1-(oxetan-3-yl)pyrazolo[4,3-b]pyridin-7-amine] was tested, and the IC50 [1, 4] was 190 nM, the IC50 [2, 4] was 190 nM and the IC50 ([3]; read-out: PDE1B, IC50) was 13 nM.
Compound `Cc1nn(C(C)C)c2c(NCc3cc[nH]n3)cc(-c3ccc[nH]c3=O)nc12` [Example 187, 3-[1-isopropyl-3-methyl-7-(1H-pyrazol-3-ylmethylamino)pyrazolo[4,3-b]pyridin-5-yl]-1H-pyridin-2-one] has an IC50 [1, 4] of 140 nM, an IC50 [2, 4] of 250 nM and an IC50 ([3]; read-out: PDE1B, IC50) of 18 nM.
In the case of `CCOc1ncccc1-c1cc(NCc2cnccn2)c2c(n1)c(C)nn2C(C)C` [Example 76, 5-(2-ethoxy-3-pyridyl)-1-isopropyl-3-methyl-N-(pyrazin-2-ylmethyl)pyrazolo[4,3-b]pyridin-7-amine], the IC50 [1, 4] is reported as 23 nM, the IC50 [2, 4] is reported as 32 nM and the IC50 ([3]; read-out: PDE1B, IC50) is reported as 2.9 nM.
`CCOc1ncccc1-c1cc(NCc2ccc(F)nc2)c2c(n1)c(C)nn2C(C)C` [Example 116, 5-(2-ethoxy-3-pyridyl)-N-[(6-fluoro-3-pyridyl)methyl]-1-isopropyl-3-methyl-pyrazolo[4,3-b]pyridin-7-amine] showed an IC50 [1, 4] of 21 nM, an IC50 [2, 4] of 46 nM and an IC50 ([3]; read-out: PDE1B, IC50) of 2.4 nM.
`CCOc1ncccc1-c1cc(NCc2ncon2)c2c(n1)c(C)nn2C(C)C` [Example 53, 5-(2-ethoxy-3-pyridyl)-1-isopropyl-3-methyl-N-(1,2,4-oxadiazol-3-ylmethyl)pyrazolo[4,3-b]pyridin-7-amine] gave an IC50 [1, 4] of 9.3 nM, an IC50 [2, 4] of 17 nM and an IC50 ([3]; read-out: PDE1B, IC50) of 0.89 nM.
